Experiments:
human ACSS1 protein = biological target: T1, human ACSS1 protein (Homo sapiens, UniProt Q9NUB1); assay: ACSS1 cell-free activity assay (pyrophosphatase-coupled, Biomol green); format: biochemical; settings: 5 nM human ACSS1, 30 minutes at room temperature, absorbance at 620 nm
T1 construct: purchased MyBioSource
T1 sequence (Q9NUB1 38-689): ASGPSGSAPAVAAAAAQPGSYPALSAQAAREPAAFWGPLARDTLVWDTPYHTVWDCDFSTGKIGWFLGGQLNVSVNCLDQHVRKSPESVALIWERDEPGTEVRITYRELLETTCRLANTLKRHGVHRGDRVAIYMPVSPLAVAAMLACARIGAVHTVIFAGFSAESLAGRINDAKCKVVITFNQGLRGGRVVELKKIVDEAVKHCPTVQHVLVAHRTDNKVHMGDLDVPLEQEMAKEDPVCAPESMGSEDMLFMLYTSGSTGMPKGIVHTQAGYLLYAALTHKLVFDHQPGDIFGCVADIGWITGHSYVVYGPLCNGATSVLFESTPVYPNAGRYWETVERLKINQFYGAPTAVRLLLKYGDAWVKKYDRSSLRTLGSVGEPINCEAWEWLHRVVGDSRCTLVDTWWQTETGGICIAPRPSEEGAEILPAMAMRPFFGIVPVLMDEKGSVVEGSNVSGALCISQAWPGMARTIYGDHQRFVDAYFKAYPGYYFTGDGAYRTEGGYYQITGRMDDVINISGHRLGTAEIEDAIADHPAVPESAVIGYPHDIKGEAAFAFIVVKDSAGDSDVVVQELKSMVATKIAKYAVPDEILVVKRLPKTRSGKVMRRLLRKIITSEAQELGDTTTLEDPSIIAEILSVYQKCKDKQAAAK
Method: ACSS1 Cell-Free Activity Assay (Cell-Free IC50)
(§1) The assay is based on a coupling reaction with Pyrophosphatase: ACSS1 is converting ATP+CoA+Acetate=>AMP+pyrophosphate+Acetyl-CoA (Ac-CoA). Pyrophosphatase converts pyrophosphate, a product of the ACSS1 reaction, to phosphate which can be detected by measuring the absorbance at 620 nm after incubation with the Biomol green reagent (Enzo life Science, BML-AK111).
(§2) Cell Free IC50 Determination:
5 nM of human ACSS1 protein (MyBioSource) was incubated for 30 minutes at room temperature with various compounds' concentrations in a reaction containing 50 mM Hepes pH 7.5, 10 mM DTT, 90 mM KCl, 0.006% Tween-20, 0.1 mg/ml BSA, 2 mM MgCl2, 15 μM CoA, 5 mM NaAc, 300 μM ATP and 0.5 U/ml Pyrophosphatase (Sigma). At the end of the reaction, Biomol Green was added for 30 minutes at RT and the activity was measured by reading the absorbance at 620 nm. IC50 values were calculated using non-linear regression curve fit with 0% and 100% constrains (CDD Vault, Collaborative Drug Discovery, Inc.).

human ACSS2 protein = biological target: T2, human ACSS2 protein (Homo sapiens, UniProt Q9NR19); assay: ACSS2 cell-free activity assay (pyrophosphatase-coupled, Biomol green); settings: 10 nM human ACSS2, 90 minutes at 37 C, absorbance at 620 nm; read-out: ACSS2 Biochemical IC50
T2 construct: purchased OriGene Technologies, Inc
T2 sequence (Q9NR19 whole entry): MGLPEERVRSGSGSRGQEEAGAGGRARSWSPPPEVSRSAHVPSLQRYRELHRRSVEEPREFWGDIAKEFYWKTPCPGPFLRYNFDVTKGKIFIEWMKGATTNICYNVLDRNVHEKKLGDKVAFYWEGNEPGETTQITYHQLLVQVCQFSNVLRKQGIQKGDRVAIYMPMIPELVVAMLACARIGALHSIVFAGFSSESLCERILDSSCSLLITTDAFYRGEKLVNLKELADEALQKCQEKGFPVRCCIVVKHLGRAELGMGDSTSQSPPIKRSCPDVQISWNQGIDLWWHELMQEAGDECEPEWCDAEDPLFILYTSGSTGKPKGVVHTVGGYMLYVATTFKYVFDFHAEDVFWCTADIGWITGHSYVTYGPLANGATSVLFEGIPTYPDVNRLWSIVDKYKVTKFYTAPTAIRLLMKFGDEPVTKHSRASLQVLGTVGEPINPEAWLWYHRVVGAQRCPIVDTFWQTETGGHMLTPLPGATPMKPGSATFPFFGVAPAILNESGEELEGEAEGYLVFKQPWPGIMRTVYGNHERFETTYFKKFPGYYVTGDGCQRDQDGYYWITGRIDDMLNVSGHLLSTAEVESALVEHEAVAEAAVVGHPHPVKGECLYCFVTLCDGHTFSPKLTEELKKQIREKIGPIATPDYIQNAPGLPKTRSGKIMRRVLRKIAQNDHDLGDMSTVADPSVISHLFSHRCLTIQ
Method: ACSS2 Cell-Free Activity Assay (Cell-Free IC50)
as §1, with “ACSS2” for “ACSS1”
as §2
10 nM of human ACSS2 protein (OriGene Technologies, Inc) was incubated for 90 minutes at 37 C with various compounds' concentrations in a reaction containing 50 mM Hepes pH 7.5, 10 mM DTT, 90 mM KCl, 0.006% Tween-20, 0.1 mg/ml BSA, 2 mM MgCl2, 10 μM CoA, 5 mM NaAc, 300 μM ATP and 0.5 U/ml Pyrophosphatase (Sigma). At the end of the reaction, Biomol Green was added for 30 minutes at RT and the activity was measured by reading the absorbance at 620 nm. IC50 values were calculated using non-linear regression curve fit with 0% and 100% constrains (CDD Vault, Collaborative Drug Discovery, Inc.).

| Structure (SMILES) | ACSS1 Biochemical IC50 (nM) (human ACSS1 protein) | IC50 (human ACSS2 protein) |
| --- | --- | --- |
| COc1ccc(-c2[nH]c(C)c(C(=O)Nc3cccc(C(F)(F)C4(C)CC4)c3)[n+]2[O-])cc1-c1c(C)cccc1C [Compound 151, 4-((3-(difluoro(1-methylcyclopropyl)methyl)phenyl)carbamoyl)-2-(6-methoxy-2′,6′-dimethyl-[1,1′-biphenyl]-3-yl)-5-methyl-1H-imidazole 3-oxide] | Inactive | > 30 nM |
| COc1ccc(-c2[nH]c(C)c(C(=O)Nc3cccc(C(=O)N4CCNCC4)c3)[n+]2[O-])cc1-c1c(C)cccc1C [Compound 153, 2-(6-methoxy-2′,6′-dimethyl-[1,1′-biphenyl]-3-yl)-5-methyl-4-((3-(piperazine-1-carbonyl)phenyl)carbamoyl)-1H-imidazole 3-oxide] | Inactive | > 30 nM |
| CCC(F)(F)c1cccc(NC(=O)c2c(C)[nH]c(-c3ccc(OC)c(-c4c(C)cc(CCc5ccccc5)cc4C)c3)[n+]2[O-])c1 [Compound 154, 4-((3-(1,1-difluoropropyl)phenyl)carbamoyl)-2-(6-methoxy-2′,6′-dimethyl-4′-phenethyl-[1,1′-biphenyl]-3-yl)-5-methyl-1H-imidazole 3-oxide] | Inactive | > 30 nM |
| CC#Cc1cc(C)c(-c2cc(-c3[nH]c(C)c(C(=O)Nc4cccc(C(F)(F)CC)c4)[n+]3[O-])ccc2OC)c(C)c1 [Compound 156, 4-((3-(1,1-difluoropropyl)phenyl)carbamoyl)-2-(6-methoxy-2′,6′-dimethyl-4′-(prop-1-yn-1-yl)-[1,1′-biphenyl]-3-yl)-5-methyl-1H-imidazole 3-oxide] | Inactive | 1 to 30 nM |
| C/C=C/c1cc(C)c(-c2cc(-c3[nH]c(C)c(C(=O)Nc4cccc(C(F)(F)CC)c4)[n+]3[O-])ccc2OC)c(C)c1 [Compound 159, (E)-4-((3-(1,1-difluoropropyl)phenyl)carbamoyl)-2-(6-methoxy-2′,6′-dimethyl-4′-(prop-1-en-1-yl)-[1,1′-biphenyl]-3-yl)-5-methyl-1H-imidazole 3-oxide] | Inactive | 1 to 30 nM |
| C/C=C\c1cc(C)c(-c2cc(-c3[nH]c(C)c(C(=O)Nc4cccc(C(F)(F)CC)c4)[n+]3[O-])ccc2OC)c(C)c1 [Compound 160, (Z)-4-((3-(1,1-difluoropropyl)phenyl)carbamoyl)-2-(6-methoxy-2′,6′-dimethyl-4′-(prop-1-en-1-yl)-[1,1′-biphenyl]-3-yl)-5-methyl-1H-imidazole 3-oxide] | Inactive | 1 to 30 nM |
| COc1ccc(-c2[nH]c(C)c(C(=O)Nc3cccc(C(=O)N4CCN(C)CC4)c3)[n+]2[O-])cc1-c1c(C)cccc1C [Compound 163, 2-[3-(2,6-dimethylphenyl)-4-methoxy-phenyl]-5-methyl-N-[3-(4-methylpiperazine-1-carbonyl)phenyl]-3-oxido-1H-imidazol-3-ium-4-carboxamide] | Inactive | > 30 nM |
| CCC(F)(F)c1cccc(NC(=O)c2c(C)[nH]c(-c3ccc(OC)c(C4CCN(C)CC4)c3)[n+]2[O-])c1 [Compound 166, N-[3-(1,1-difluoropropyl)phenyl]-2-[4-methoxy-3-(1-methyl-4-piperidyl)phenyl]-5-methyl-3-oxido-1H-imidazol-3-ium-4-carboxamide] | Inactive | > 30 nM |
| COc1ccc(-c2[nH]c(C)c(C(=O)Nc3ccc4[nH]cnc4c3)[n+]2[O-])cc1-c1c(C)cccc1C [Compound 173, 4-((1H-benzo[d]imidazol-5-yl)carbamoyl)-2-(6-methoxy-2′,6′-dimethyl-[1,1′-biphenyl]-3-yl)-5-methyl-1H-imidazole 3-oxide] | Inactive | > 30 nM |
| CCC(F)(F)c1cccc(NC(=O)c2c(C)n(COP(=O)(O)OC(C)(C)C)c(-c3ccc(OC)c(-c4c(C)cccc4C)c3)[n+]2[O-])c1 [Compound 188, 1-(((tert-butoxy(hydroxy)phosphoryl)oxy)methyl)-4-((3-(1,1-difluoropropyl)phenyl)carbamoyl)-2-(6-methoxy-2′,6′-dimethyl-[1,1′-biphenyl]-3-yl)-5-methyl-1H-imidazole 3-oxide] | Inactive | 1 to 30 nM |
| COc1ccc(-c2[nH]c(C)c(C(=O)Nc3cccc(-c4ccc[nH]4)c3)[n+]2[O-])cc1-c1c(C)cccc1C [Compound 191, 4-((3-(1H-pyrrol-2-yl)phenyl)carbamoyl)-2-(6-methoxy-2′,6′-dimethyl-[1,1′-biphenyl]-3-yl)-5-methyl-1H-imidazole 3-oxide] | Inactive | > 30 nM |
| CCC(F)(F)c1cccc(NC(=O)c2c(C)n(COP(=O)(O)O)c(-c3ccc(OC)c(-c4c(C)cccc4C)c3)[n+]2[O-])c1 [Compound 193, 4-((3-(1,1-difluoropropyl)phenyl)carbamoyl)-2-(6-methoxy-2′,6′-dimethyl-[1,1′-biphenyl]-3-yl)-5-methyl-1-((phosphonooxy)methyl)-1H-imidazole 3-oxide] | Inactive | > 30 nM |

Continued, values first:

| ACSS1 Biochemical IC50 (nM) (human ACSS1 protein) | IC50 (human ACSS2 protein) | Structure (SMILES) |
| --- | --- | --- |
| Inactive | 1 to 30 nM | CCC(F)(F)c1cccc(NC(=O)c2c(C)[nH]c(-c3ccc(OC)c(-c4c(C)cc(C)cc4C)c3)[n+]2[O-])c1 [Compound 152, 4-((3-(1,1-difluoropropyl)phenyl)carbamoyl)-2-(6-methoxy-2′,4′,6′-trimethyl-[1,1′-biphenyl]-3-yl)-5-methyl-1H-imidazole 3-oxide] |
| Inactive | < 1 nM | CCCCc1cc(-c2c(C)cccc2C)cc(-c2[nH]c(C)c(C(=O)Nc3cccc(C(F)(F)C4CC4)c3)[n+]2[O-])c1 [Compound 161, 2-(5-butyl-2′,6′-dimethyl-[1,1′-biphenyl]-3-yl)-4-((3-(cyclopropyldifluoromethyl)phenyl)carbamoyl)-5-methyl-1H-imidazole 3-oxide] |
| Inactive | < 1 nM | CCC(F)(F)c1cccc(NC(=O)c2c(C)[nH]c(-c3ccc(OC)c(C4CCNCC4)c3)[n+]2[O-])c1 [Compound 162, 4-((3-(1,1-difluoropropyl)phenyl)carbamoyl)-2-(4-methoxy-3-(piperidin-4-yl)phenyl)-5-methyl-1H-imidazole 3-oxide] |
| Inactive | < 1 nM | CCC(F)(F)c1cccc(NC(=O)c2c(C)[nH]c(-c3ccc(OC)c(N4CCNCC4)c3)[n+]2[O-])c1 [Compound 164, 4-((3-(1,1-difluoropropyl)phenyl)carbamoyl)-2-(4-methoxy-3-(piperazin-1-yl)phenyl)-5-methyl-1H-imidazole 3-oxide] |
| Inactive | < 1 nM | CCC(F)(F)c1cccc(NC(=O)c2c(C)[nH]c(-c3ccc(OC)c(N4CCN(C)CC4)c3)[n+]2[O-])c1 [Compound 165, 4-((3-(1,1-difluoropropyl)phenyl)carbamoyl)-2-(4-methoxy-3-(4-methylpiperazin-1-yl)phenyl)-5-methyl-1H-imidazole 3-oxide] |
| Inactive | < 1 nM | COc1ccc(-c2[nH]c(C)c(C(=O)Nc3cccc(C(=O)N4CCC4)c3)[n+]2[O-])cc1-c1c(C)cccc1C [Compound 170, 4-((3-(azetidine-1-carbonyl)phenyl)carbamoyl)-2-(6-methoxy-2′,6′-dimethyl-[1,1′-biphenyl]-3-yl)-5-methyl-1H-imidazole 3-oxide] |

Source: US20230174507A1, “IMIDAZOLE 3-OXIDE DERIVATIVE BASED ACSS2 INHIBITORS AND METHODS OF USE THEREOF” (METABOMED LTD., priority 2020, published 2023)
